The values below come from patent US20030220307A1, “Remedial agent for osteoporosis” (priority 2000, published 2003).

Series [1] deals with ovariectomized (OVX) rats. It is filed as in vivo, rat. The settings on record: 0.04 μg/kg per dose, subcutaneous, 5 times a week for 6 weeks; third lumbar vertebra. As for the experimental part: Seven- to nine-week-old W-I female rats (Imamichi Institute for Animal Reproduction) were ovariectomized to remove both ovaries. From the following day, 1α,25-dihydroxyvitamin D3 was subcutaneously administered 5 times a week for 6 weeks in an amount of 0.01 to 0.04 μg/kg per dose. After the last administration, 24-hour urine was sampled from each rat and blood was drawn under ether anesthesia. The rats were then euthanized and their lumbar vertebrae were isolated. The lumbar bone mineral density was measured at the third lumbar vertebra site using a dual X-ray bone mineral densitometer (DCS-600, ALOKA). The blood and urinary calcium levels and the urinary creatinine level were measured with a HITACHI automatic analyzer (Model 7170, Hitachi). Statistical processing was carried out using a software package of Statistic Analysis System (SAS). A comparison between sham operation (sham) and ovariectomy (OVX) groups was made by an unpaired t-test, while a comparison between OVX and drug treatment groups or between sham and drug treatment groups was made by Dunnett's multiple test. A P-value less than 5% was defined as a significant difference.

Series [2] has as its system ovariectomized (OVX) rats. Briefly: Test in osteoporosis rat model (femur bone mineral density and blood Ca level). In kind it is in vivo. Conditions: oral; for OVX-induced decrease in femur bone mineral density: every day for 8 weeks, vs OVX group, p<0.05, level remained as high as in the sham group; for blood calcium-increasing effect: in amounts where they suppressed the decrease in bone mineral density, 8 weeks, blood drawn 24 hours after last administration. As for the experimental part:
The compounds of the present invention were evaluated for their effects on bone mineral density and blood calcium (Ca) level in osteoporosis rat model. The following compounds were tested: 1α,3β-dihydroxy-20(S)-(3-ethyl-3-hydroxypentyl)-9,10-secopregna-5,7,10(19),16-tetraene from Example 11 (hereinafter referred to as “Compound l”) and 1α,3β-dihydroxy-20(S)-(5-ethyl-5-hydroxy-3-heptynyl)-9,10-secopregna-5,7,10(19),16-tetraene from Example 6 (hereinafter referred to as “Compound 2”).
Nine-month-old W-I female rats (Imamichi Institute for Animal Reproduction) were ovariectomized to remove both ovaries. From the following day, Compound 1 or Compound 2 was orally administered every day for 8 weeks. Compound 1 was given in an amount of 0.5 μg/kg, 1 μg/kg or 2 μg/kg per day in two divided doses, while Compound 2 was given in an amount of 0.125 μg/kg, 0.25 μg/kg or 0.5 μg/kg per day in two divided doses. Twenty-four hours after the last administration, blood was drawn from each rat under ether anesthesia. The rats were then euthanized and their femurs were isolated.
The femur bone mineral density was measured using a dual X-ray bone mineral densitometer (DCS-600EX, ALOKA). The blood calcium (Ca) level was measured with a HITACHI automatic analyzer (Model 7170, Hitachi). For comparison purposes, both groups of sham operation (sham) and ovariectomy (OVX; in which rats were ovariectomized only, not followed by administration of test compounds) were similarly assayed for their blood calcium (Ca) level and bone mineral density by isolating their femurs.
Statistical processing was carried out using a software package of Statistic Analysis System (SAS). A comparison between sham operation (sham) and ovariectomy (OVX) groups was made by an unpaired t-test, while a comparison between OVX and drug treatment groups was made by Dunnett's multiple test. A P-value less than 5% was defined as a significant difference.

As for `C=C1/C(=C\C=C2/CCC[C@]3(C)[C@@H]([C@H](C)CCCC(C)(C)O)CC[C@@H]23)C[C@@H](O)C[C@@H]1O` [1α,25-dihydroxyvitamin D3], the “OVX-induced decrease in lumbar bone mineral density” value in series [1] is “significantly suppressed”.

As for `C=C1/C(=C\C=C2/CCC[C@]3(C)C([C@@H](C)CCC(O)(CC)CC)=CCC23)C[C@@H](O)C[C@@H]1O` (stereo partly drawn) [Compound 1, 1α,3β-dihydroxy-20(S)-(3-ethyl-3-hydroxypentyl)-9,10-secopregna-5,7,10(19),16-tetraene], the “OVX-induced decrease in femur bone mineral density” value in series [2] (1 μg/kg per day in two divided doses) and in series [2] (2 μg/kg per day in two divided doses) was “significantly suppressed” each time. For the same molecule, in series [2], the blood calcium-increasing effect result is “not observed”.

As for `C=C1/C(=C\C=C2/CCC[C@]3(C)C([C@@H](C)CCC#CC(O)(CC)CC)=CCC23)C[C@@H](O)C[C@@H]1O` (stereo partly drawn) [Compound 2, 1α,3β-dihydroxy-20(S)-(5-ethyl-5-hydroxy-3-heptynyl)-9,10-secopregna-5,7,10(19),16-tetraene], the “OVX-induced decrease in femur bone mineral density” value in series [2] (0.125 μg/kg per day in two divided doses) and in series [2] (0.5 μg/kg per day in two divided doses) was “significantly suppressed” throughout. Also, the blood calcium-increasing effect result in series [2] is listed as “not observed”.
